Reference: PubChem BioAssay AID651650 (Sanford-Burnham Center for Chemical Genomics, 2012)
Calls of active or inactive are those of the source.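 The calls were made as follows: active = mean IC50 below 20 µM in each of the two panels, so potent in both; inactive = the rest.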

Biological target: Neuropilin-1 (Homo sapiens) (UniProt O14786)
Assay: NRP-1 b1b2 CendR peptide binding inhibitors, dose response, biochemical, FP and AlphaScreen panel (AID 651650)
Details: NRP-1 b1b2 / RPARPAR peptide binding, FP or AlphaScreen
[1] = AlphaScreen, run 1, individual panel run IC50
[2] = FP, run 1, individual panel run IC50
[3] = FP, run 2, individual panel run IC50

Neuropilin-1 (Homo sapiens), sequence (O14786 whole entry, looked up): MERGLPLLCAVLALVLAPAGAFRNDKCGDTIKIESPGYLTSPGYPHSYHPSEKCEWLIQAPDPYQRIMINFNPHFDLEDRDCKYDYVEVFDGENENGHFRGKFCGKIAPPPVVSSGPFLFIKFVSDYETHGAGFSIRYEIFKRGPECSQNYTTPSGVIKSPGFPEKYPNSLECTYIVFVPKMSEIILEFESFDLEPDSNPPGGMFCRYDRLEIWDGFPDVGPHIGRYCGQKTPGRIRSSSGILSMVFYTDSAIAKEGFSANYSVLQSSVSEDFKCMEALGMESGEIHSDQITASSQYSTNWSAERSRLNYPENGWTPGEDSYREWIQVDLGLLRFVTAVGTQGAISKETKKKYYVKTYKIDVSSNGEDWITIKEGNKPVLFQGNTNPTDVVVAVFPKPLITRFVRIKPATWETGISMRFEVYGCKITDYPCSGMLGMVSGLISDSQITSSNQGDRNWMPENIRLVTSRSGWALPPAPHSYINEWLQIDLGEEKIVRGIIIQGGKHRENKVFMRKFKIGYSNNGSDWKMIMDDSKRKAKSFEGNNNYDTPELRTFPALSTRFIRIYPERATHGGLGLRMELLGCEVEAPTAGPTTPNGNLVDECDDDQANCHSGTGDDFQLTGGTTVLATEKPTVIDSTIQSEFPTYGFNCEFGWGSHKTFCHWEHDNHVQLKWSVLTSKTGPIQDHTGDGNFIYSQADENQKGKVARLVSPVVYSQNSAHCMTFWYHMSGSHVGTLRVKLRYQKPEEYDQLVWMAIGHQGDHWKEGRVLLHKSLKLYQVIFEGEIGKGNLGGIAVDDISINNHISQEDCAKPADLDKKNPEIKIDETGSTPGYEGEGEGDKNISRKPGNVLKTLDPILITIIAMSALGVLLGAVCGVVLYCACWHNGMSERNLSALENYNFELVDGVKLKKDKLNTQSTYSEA

In the case of `COc1c2ccc(C(=O)NCc3cc(C(F)(F)F)cc(C(F)(F)F)c3)cc2nn1C`, the IC50 (AlphaScreen, mean of runs) is reported as > 100 µM (inactive), the IC50 [1] is reported as greater than 100 µM and the IC50 (FP, mean of runs) is reported as > 95 µM (inactive). It also gave an IC50 [2] greater than 95 µM and an IC50 [3] greater than 95 µM.
`CC(C(=O)N1CCN(c2ccc(Cl)cc2)CC1)c1ncc(C(F)(F)F)cc1Cl` (stereo not given) was tested, and the IC50 (AlphaScreen, mean of runs) was > 100 µM (inactive), the IC50 [1] was greater than 100 µM and the IC50 (FP, mean of runs) was > 95 µM (inactive). It also gave an IC50 [2] greater than 95 µM and an IC50 [3] greater than 95 µM.
In the case of `COC(=O)c1cccc(NC(=S)NCCC2=CCCCC2)c1`, the IC50 (AlphaScreen, mean of runs) is reported as > 100 µM (inactive), the IC50 [1] is reported as greater than 100 µM and the IC50 (FP, mean of runs) is reported as > 95 µM (inactive). For the same molecule, the IC50 [2] was greater than 95 µM and the IC50 [3] was greater than 95 µM.
`CCC1CCCCN1CCCNC(=O)C1CCCN(S(=O)(=O)N2CC(C)CC(C)C2)C1` (stereo not given) was tested, and the IC50 (AlphaScreen, mean of runs) was 6.29 µM, the IC50 [1] was 6.29 µM and the IC50 (FP, mean of runs) was > 95 µM (inactive). It also gave an IC50 [2] greater than 95 µM and an IC50 [3] greater than 95 µM.
`Cc1nn(-c2ccccc2)c(C)c1C(=O)OCC(=O)Nc1ccccc1` was tested, and the IC50 (AlphaScreen, mean of runs) was > 100 µM (inactive), the IC50 [1] was greater than 100 µM and the IC50 (FP, mean of runs) was > 95 µM (inactive). For the same molecule, the IC50 [2] was greater than 95 µM and the IC50 [3] was greater than 95 µM.
For `COc1ccc(Nc2nc(-c3cccnc3)nc3ccccc23)cn1`, the IC50 (AlphaScreen, mean of runs) was “inactive”, the IC50 [1] was 54.7 µM and the IC50 (FP, mean of runs) was > 95 µM (inactive). For the same molecule, the IC50 [2] was greater than 95 µM and the IC50 [3] was greater than 95 µM.
In the case of `Cc1cccc(NS(=O)(=O)c2cccs2)c1`, the IC50 (AlphaScreen, mean of runs) is reported as > 100 µM (inactive), the IC50 [1] is reported as greater than 100 µM and the IC50 (FP, mean of runs) is reported as > 95 µM (inactive). The IC50 [2] was greater than 95 µM and the IC50 [3] was greater than 95 µM.
In the case of `Cc1ccc(C(=O)Nc2ccccc2-c2ccccc2)cc1S(=O)(=O)Nc1ccccc1`, the IC50 (AlphaScreen, mean of runs) is reported as > 100 µM (inactive), the IC50 [1] is reported as greater than 100 µM and the IC50 (FP, mean of runs) is reported as > 95 µM (inactive). The IC50 [2] was greater than 95 µM and the IC50 [3] was greater than 95 µM.
`COc1cccc(OCC(=O)NNC(=S)Nc2ccc(Cl)cc2Cl)c1` was tested, and the IC50 (AlphaScreen, mean of runs) was > 100 µM (inactive), the IC50 [1] was greater than 100 µM and the IC50 (FP, mean of runs) was > 95 µM (inactive). For the same molecule, the IC50 [2] was greater than 95 µM and the IC50 [3] was greater than 95 µM.
With `C#CCCOC(=O)N1C2=NC(C(=O)OC)=C(C(=O)OC)[C@@H]3N(C)c4ccccc4[C@]23C[C@H]1CO` the IC50 (AlphaScreen, mean of runs) was 9.53 µM, the IC50 [1] was 9.53 µM and the IC50 (FP, mean of runs) was > 95 µM (inactive). The IC50 [2] was greater than 95 µM and the IC50 [3] was greater than 95 µM.
For `COc1ccc(C(CNc2ccc(S(=O)(=O)N3CCCC3)cc2[N+](=O)[O-])N2CCCC2)cc1` (stereo not given), the IC50 (AlphaScreen, mean of runs) was 12.2 µM, the IC50 [1] was 12.2 µM and the IC50 (FP, mean of runs) was > 95 µM (inactive). It also gave an IC50 [2] greater than 95 µM and an IC50 [3] greater than 95 µM.
In the case of `CCCS(=O)(=O)N1CCC(Cc2ccc(OC)cc2)(C(=O)OCC)CC1`, the IC50 (AlphaScreen, mean of runs) is reported as > 100 µM (inactive), the IC50 [1] is reported as greater than 100 µM and the IC50 (FP, mean of runs) is reported as > 95 µM (inactive). It also gave an IC50 [2] greater than 95 µM and an IC50 [3] greater than 95 µM.
For `COC/C=C/C1=CC2=CC(=O)C(C)(OC(=O)c3cnc4ccccc4n3)C(=O)C2=CN1Cc1ccc(OC)cc1` (stereo not given), the IC50 (AlphaScreen, mean of runs) was “inactive”, the IC50 [1] was 46.4 µM and the IC50 (FP, mean of runs) was > 95 µM (inactive). For the same molecule, the IC50 [2] was greater than 95 µM and the IC50 [3] was greater than 95 µM.
For `O=C1C=CC(=O)C2C1C1(Cl)C(Cl)=C(Cl)C2(Cl)C1(Cl)Cl` (stereo not given), the IC50 (AlphaScreen, mean of runs) was > 100 µM (inactive), the IC50 [1] was greater than 100 µM and the IC50 (FP, mean of runs) was > 95 µM (inactive). It also gave an IC50 [2] greater than 95 µM and an IC50 [3] greater than 95 µM.
`Oc1ccccc1-c1ccn[nH]1` was tested, and the IC50 (AlphaScreen, mean of runs) was > 100 µM (inactive), the IC50 [1] was greater than 100 µM and the IC50 (FP, mean of runs) was > 95 µM (inactive). For the same molecule, the IC50 [2] was greater than 95 µM and the IC50 [3] was greater than 95 µM.
In the case of `CC(Oc1ccccc1)C(=O)NC1=NCCS1` (stereo not given), the IC50 (AlphaScreen, mean of runs) is reported as > 100 µM (inactive), the IC50 [1] is reported as greater than 100 µM and the IC50 (FP, mean of runs) is reported as > 95 µM (inactive). It also gave an IC50 [2] greater than 95 µM and an IC50 [3] greater than 95 µM.
With `CCC(=O)Nc1cc2c3c(c1)CCC(=O)N3CCC2` the IC50 (AlphaScreen, mean of runs) was 13.8 µM, the IC50 [1] was 13.8 µM and the IC50 (FP, mean of runs) was > 95 µM (inactive). It also gave an IC50 [2] greater than 95 µM and an IC50 [3] greater than 95 µM.
With `Cc1ccc(S(=O)(=O)NCC(=O)N(c2ccccc2)C(C(=O)NCc2ccccc2)c2ccco2)cc1` (stereo not given) the IC50 (AlphaScreen, mean of runs) was > 100 µM (inactive), the IC50 [1] was greater than 100 µM and the IC50 (FP, mean of runs) was > 95 µM (inactive). It also gave an IC50 [2] greater than 95 µM and an IC50 [3] greater than 95 µM.
`CC(C)Cc1ccc(C(C)C(=O)Nc2ccc(O)cc2)cc1` (stereo not given) was tested, and the IC50 (AlphaScreen, mean of runs) was > 100 µM (inactive), the IC50 [1] was greater than 100 µM and the IC50 (FP, mean of runs) was > 95 µM (inactive). It also gave an IC50 [2] greater than 95 µM and an IC50 [3] greater than 95 µM.
In the case of `O=C(NC1CC1)c1ccc(COc2ccc(F)cc2)o1`, the IC50 (AlphaScreen, mean of runs) is reported as > 100 µM (inactive), the IC50 [1] is reported as greater than 100 µM and the IC50 (FP, mean of runs) is reported as > 95 µM (inactive). For the same molecule, the IC50 [2] was greater than 95 µM and the IC50 [3] was greater than 95 µM.
With `Cc1cc(NC(=O)COC(=O)c2ccc(C)c(C)c2)no1` the IC50 (AlphaScreen, mean of runs) was > 100 µM (inactive), the IC50 [1] was greater than 100 µM and the IC50 (FP, mean of runs) was > 95 µM (inactive). It also gave an IC50 [2] greater than 95 µM and an IC50 [3] greater than 95 µM.
For `COC(=O)c1c(NC(=O)CN(c2ccccc2)S(C)(=O)=O)sc2c1CCCC2`, the IC50 (AlphaScreen, mean of runs) was 15.5 µM, the IC50 [1] was 15.5 µM and the IC50 (FP, mean of runs) was > 95 µM (inactive). It also gave an IC50 [2] greater than 95 µM and an IC50 [3] greater than 95 µM.
